Data from paper PMC11838108, “Screening and evaluation of novel DPP-IV inhibitory peptides in goat milk based on molecular docking and molecular dynamics simulation” (Food Chemistry: X, 2025).
Like-named read-outs stand apart in the source and are kept apart here. Where no end group is shown, it is not given here.

Columns and labels:
[1] = molecular target: angiotensin-converting enzyme (ACE); settings: ref Chen, Yu, Wu, & He, 2022, read-out: ACE inhibitory IC50; cited from earlier work
DPP-IV [2] = molecular target: T1, DPP-IV (Homo sapiens, UniProt P27487); experiment: DPP-IV inhibition by the peptides (Gly-Pro-pNA substrate); format: biochemical; settings: Gly-Pro-pNA 0.2 mM, DPP-IV 0.0025 U/mL, 60 min; read-out: DPP-IV inhibitory activity IC50
T1 sequence (P27487 whole entry): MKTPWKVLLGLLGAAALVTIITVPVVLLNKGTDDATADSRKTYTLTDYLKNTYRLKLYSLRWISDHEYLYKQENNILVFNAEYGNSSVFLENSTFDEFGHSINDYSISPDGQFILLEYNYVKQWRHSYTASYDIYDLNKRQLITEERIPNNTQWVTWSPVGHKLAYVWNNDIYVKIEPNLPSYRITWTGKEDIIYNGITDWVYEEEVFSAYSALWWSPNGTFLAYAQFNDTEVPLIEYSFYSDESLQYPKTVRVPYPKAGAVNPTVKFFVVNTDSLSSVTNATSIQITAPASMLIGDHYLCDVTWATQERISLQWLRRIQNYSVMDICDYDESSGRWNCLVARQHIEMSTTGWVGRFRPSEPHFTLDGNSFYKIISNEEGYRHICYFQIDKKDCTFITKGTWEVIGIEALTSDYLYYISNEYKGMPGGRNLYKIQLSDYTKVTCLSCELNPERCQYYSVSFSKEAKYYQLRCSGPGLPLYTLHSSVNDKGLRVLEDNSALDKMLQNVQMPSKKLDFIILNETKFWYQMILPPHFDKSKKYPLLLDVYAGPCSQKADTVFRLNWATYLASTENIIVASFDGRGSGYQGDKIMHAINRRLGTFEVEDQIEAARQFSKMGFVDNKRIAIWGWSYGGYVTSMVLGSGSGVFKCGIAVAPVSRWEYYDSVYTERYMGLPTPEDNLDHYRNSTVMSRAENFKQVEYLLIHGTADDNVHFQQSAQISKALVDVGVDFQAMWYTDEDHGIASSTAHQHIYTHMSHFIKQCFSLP
Protocol: Peptides were prepared at various concentrations and transferred to a 96-well microplate containing Gly-Pro-pNA (0.2 mM). The microplates were then incubated for 5 min. Subsequently, DPP-IV (0.0025 U/mL) was added, followed by an additional incubation for 60 min. […] The peptides, Gly-Pro-pNA, and DPP-IV were then dissolved in Tris-HCl (0.1 M). Tris-HCl was used as the negative control with DPP-IV but without the peptides and as the blank control without the peptides or DPP-IV.

DPP-IV [3] = test system: T2, DPP-IV; experiment: DPP-IV inhibitory activity in Caco-2 cells (Gly-Pro-AMC substrate); format: cell-based; settings: peptide 2 mg/mL (GPFPLL 3.11 mM, LPYPY 3.07 mM), 24 h
T2 construct: endogenous in cells; host or cells: Caco-2 cells (Haixing Biological Technology Co., Ltd.)
Protocol: Caco-2 cells were seeded on a black 96-well plate at a density of 2 × 10^4 cells per well. Subsequently, the cells were treated with sample solutions at various concentrations and then further incubated for 24 h. After incubating, the peptide solutions and medium were removed from the wells, and 100 μL of the Gly-Pro-AMC substrate (50 μM) was added to each well and incubated for 10 min at 37 °C.

[4] = Stability of peptides after in vitro simulated digestion (RP-HPLC); format: in vitro ADME; parameters: remaining at 2 min: dose or concentration left out as unconfirmed; settings: for Oral-gastric digestion (stability of peptide): after oral and gastric phase; for Oral-gastric digestion (stability of peptide) / Oral-gastric-intestinal digestion (stability of peptide) / remaining at 2 min: RP-HPLC peak area; for Oral-gastric-intestinal digestion (stability of peptide): after oral, gastric and intestinal phase; for decrease of stability after intestinal digestion: relative to oral-gastric digestion; for remaining at 2 min: simulated salivary fluid (SSF) with salivary amylase, after oral phase, read-out: Oral digestion (stability of peptide)
Protocol: (§1) Based on the method described by Brodkorb et al. ([Brodkorb et al., 2019]), the following solutions were prepared: SSF, SGF, and SIF salt solutions, and salivary amylase, pepsin, and trypsin solutions.
Each peptide was dissolved at a concentration of 1 mg/mL, and 0.094 mL of SSF, 0.001 mL of CaCl2·2H2O (0.3 M), 0.025 mL of salivary amylase (75 U/mL), and 0.005 mL of H2O were sequentially added, for a total volume of 0.25 mL. The mixture was then incubated in a 37 °C incubator for 2 min.
Briefly, 0.25 mL of the oral digestion mixture was sequentially combined with 0.12 mL of SGF, 0.001 mL of CaCl2·2H2O (0.3 M), 0.048 mL of pepsin (2000 U/mL), 0.060 mL of SGF, 0.011 mL of H2O, and 0.010 mL of HCl (1 M), for a total volume of 0.5 mL. The mixture was then incubated in a 37 °C incubator for 2 h.
A 0.50-mL sample of the gastric digestion mixture was successively combined with 0.195 mL of SIF, 0.001 mL of CaCl2·2H2O (0.3 M), 0.125 mL of trypsin (100 U/mL), 0.100 mL of SIF, and 0.079 mL of H2O. The mixture was then incubated in a 37 °C incubator for 2 h at a pH of 7.0.
After oral, gastric, and intestinal digestion, the digestion mixture was filtered through a 0.22-μm sterile filter. The filtrate was stored at −20 °C for subsequent analysis.
The in vitro simulated digestion experiments of the peptides were conducted in accordance with the method described by Hao et al., with minor modifications ([Hao et al., 2020]). The stability of peptides post-digestion was assessed by RP-HPLC (CAP-CELL PAK C18 AQ S-5, 10 mm × 150 mm column, Shiseido, Tokyo, Japan) with a detection wavelength of 228 nm. The formula for determining the peptide stability was as follows: Stability of peptides%=Pa/Pb×100 where Pa represents the peak area of the digested sample, and Pb represents the peak area of the reference sample.

DPP-IV [5] = molecular target: T1, DPP-IV; experiment: DPP-IV inhibitory activity of peptides after in vitro simulated digestion; format: biochemical; settings: GL-6 at 130.68 μM, LY-5 at 179.52 μM; after oral-gastric-intestinal digestion
Protocol: The method outlined by Nongonierma et al. ([Nongonierma & FitzGerald, 2013]) was adapted for our study. Peptides were prepared at various concentrations and transferred to a 96-well microplate containing Gly-Pro-pNA (0.2 mM). The microplates were then incubated for 5 min. Subsequently, DPP-IV (0.0025 U/mL) was added, followed by an additional incubation for 60 min. The absorbance of the mixture was measured at 405 nm. The peptides, Gly-Pro-pNA, and DPP-IV were then dissolved in Tris-HCl (0.1 M). Tris-HCl was used as the negative control with DPP-IV but without the peptides and as the blank control without the peptides or DPP-IV. Sitagliptin was used as the positive control instead of the peptides. The formula for calculating the inhibitory activity was as follows: DPP−IVinhibitory activity%=Ac−As/Ac−Ab×100 where absorbance values for the control, sample, and blank groups were designated as Ac, As, and Ab, respectively.
as §1
Each peptide was dissolved at a concentration of 1 mg/mL, and 0.094 mL of SSF, 0.001 mL of CaCl2·2H2O (0.3 M), 0.025 mL of salivary amylase (75 U/mL), and 0.005 mL of H2O were sequentially added, for a total volume of 0.25 mL. […]

Caco-2 cells = experiment: Cytotoxicity assay (CCK-8); format: cell-based; settings: 24 h, GL-6 0.195–3.11 mM, LY-5 0.193–3.07 mM
Protocol: A peptide cytotoxicity assay using Caco-2 cells was conducted based on the method outlined by Hao et al. with minor modifications ([Hao et al., 2020]). Initially, the cells were evenly seeded on a 96-well plate with 100 μL of 2 × 10^4 cells. After seeding, the plate was placed in a sterile and CO2-enriched incubator. After a 24-h incubation, the medium was removed, and the adherent cells were used for subsequent experiments. The peptides were dissolved in the basal medium (DMEM) and cells were treated with different concentrations of peptides. After a 24-h incubation period, 10 μL of CCK-8 was added to each well and incubated with the cells. The absorbance at 450 nm was recorded to determine cell viability.
The following formula was used to calculate cell viability, with cells cultured in the basal medium used as the control group for comparison: Cell viability%=Asample/Acontrol×100

DPP-IV [6] = settings: cited from earlier work
[7] = parameters: method as in Yin et al., 2022; settings: ref Yin et al., 2022; cited from earlier work

For CDF, the IC50 [1] is listed as 192 µM.

In the case of EACF, the IC50 [1] is given as 41.1 µM.

In the case of GPFPLL [GPFPLL], the IC50 (DPP-IV [2]) is reported as 131 ± 10.4 µM, the “DPP-IV inhibition rate in Caco-2 cells” value (DPP-IV [3]) is reported as 46.53 % ± 3.48 and the “Oral-gastric digestion (stability of peptide)” value [4] is reported as 96.37%. For the same substance, the “Oral-gastric-intestinal digestion (stability of peptide)” value [4] was 69.48%, the “decrease of stability after intestinal digestion” value [4] was 26.89% and the remaining at 2 min [4] was 99.6%. The “DPP-IV inhibitory rate after intestinal digestion” value (DPP-IV [5]) was 31.90 % ± 1.80 and the “cytotoxicity to Caco-2 cells” value (Caco-2 cells) was “Neither GL-6 nor LY-5 exhibited significant cytotoxicity”.

In the case of LPFYPN, the “mode of inhibition of DPP-IV” value (DPP-IV [6]; coix seed protein peptide, ref Zhang et al., 2023) is listed as “competitive inhibition”.

In the case of IPYWTY, the “mode of inhibition of DPP-IV” value (DPP-IV [6]; pea protein peptide, ref Zhang, Zhu, et al., 2022) is listed as “competitive inhibition”.

For LPVGP, the “stability after intestinal digestion” value [7] is listed as 80%.

In the case of PPGIPYW, the “mode of inhibition of DPP-IV” value (DPP-IV [6]; chickpea protein peptide, ref Zan et al., 2023) is given as “competitive inhibition”.

For LLSPP, the “stability after intestinal digestion” value [7] is listed as 80%.

In the case of GPFPILN [GPFPILN], the IC50 (DPP-IV [2]) is reported as 198 ± 14.9 µM.

In the case of LPYPY [LPYPY], the IC50 (DPP-IV [2]) is reported as 180 ± 18.9 µM, the “DPP-IV inhibition rate in Caco-2 cells” value (DPP-IV [3]) is reported as 65.98 % ± 2.87 and the “Oral-gastric digestion (stability of peptide)” value [4] is reported as 97.60%. For the same substance, the “Oral-gastric-intestinal digestion (stability of peptide)” value [4] was 81.99%, the “decrease of stability after intestinal digestion” value [4] was 15.61% and the remaining at 2 min [4] was 99.5%. For the same substance, the “DPP-IV inhibitory rate after intestinal digestion” value (DPP-IV [5]) was 39.37 % ± 0.90 and the “cytotoxicity to Caco-2 cells” value (Caco-2 cells) was “Neither GL-6 nor LY-5 exhibited significant cytotoxicity”.
